Experimental data published in patent US12024503B2, “Benzethers and anilines of pyrazolyl-amino-pyrimidinyl derivatives, and compositions and methods thereof” (LYNK PHARMACEUTICALS CO. LTD., priority 2019, dated 2024).
Where two headings read alike, the source gives them in different places.

Assays:
Assay type in all cases: biochemical
JAK1 = biological target: T1, JAK1 (Homo sapiens, UniProt P23458); experiment: JAK1 microfluidic kinase assay (Caliper EZ Reader II, FAM labeled peptide substrate); conditions: (5 nM), 1 mM ATP
T1 construct: purchased Carna Biosciences
T1 sequence (P23458 whole entry): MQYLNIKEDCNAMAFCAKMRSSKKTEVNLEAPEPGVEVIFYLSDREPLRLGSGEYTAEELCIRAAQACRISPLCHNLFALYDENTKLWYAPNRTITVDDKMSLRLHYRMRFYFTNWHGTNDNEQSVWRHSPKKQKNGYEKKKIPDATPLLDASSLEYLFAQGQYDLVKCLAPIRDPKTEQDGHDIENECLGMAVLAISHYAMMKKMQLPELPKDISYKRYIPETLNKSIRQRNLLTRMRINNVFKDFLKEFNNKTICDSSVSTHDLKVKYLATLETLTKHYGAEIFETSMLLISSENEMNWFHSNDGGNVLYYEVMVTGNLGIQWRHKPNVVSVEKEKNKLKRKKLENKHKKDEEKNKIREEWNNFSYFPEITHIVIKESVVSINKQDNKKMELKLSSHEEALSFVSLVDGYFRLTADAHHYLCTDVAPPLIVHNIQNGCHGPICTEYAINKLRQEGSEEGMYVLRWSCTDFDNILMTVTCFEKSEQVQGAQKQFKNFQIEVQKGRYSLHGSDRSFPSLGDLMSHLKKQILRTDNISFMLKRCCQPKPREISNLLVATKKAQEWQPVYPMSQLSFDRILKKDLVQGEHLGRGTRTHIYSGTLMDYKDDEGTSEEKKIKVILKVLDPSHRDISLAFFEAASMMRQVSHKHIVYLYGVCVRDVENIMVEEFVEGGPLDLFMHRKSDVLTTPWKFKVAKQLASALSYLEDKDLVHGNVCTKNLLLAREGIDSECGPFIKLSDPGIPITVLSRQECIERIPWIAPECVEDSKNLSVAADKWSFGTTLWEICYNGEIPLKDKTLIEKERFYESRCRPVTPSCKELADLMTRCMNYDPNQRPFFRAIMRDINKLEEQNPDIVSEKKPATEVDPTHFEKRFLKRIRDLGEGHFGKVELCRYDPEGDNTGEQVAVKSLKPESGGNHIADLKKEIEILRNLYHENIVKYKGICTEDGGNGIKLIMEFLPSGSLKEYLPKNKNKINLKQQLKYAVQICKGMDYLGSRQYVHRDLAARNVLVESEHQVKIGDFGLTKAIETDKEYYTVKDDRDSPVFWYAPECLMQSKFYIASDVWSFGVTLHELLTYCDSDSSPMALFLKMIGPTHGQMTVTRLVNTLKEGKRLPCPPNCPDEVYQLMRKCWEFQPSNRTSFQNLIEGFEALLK
Procedure: (§1) Compounds were tested against JAK1, JAK2, JAK2V617F and TYK2.
(§2) Assay Formats: JAK activity was determined in the reaction buffer 50 mM HEPES, 0.01% Brij35, 10 mMMgCl2, 2 mMDTT by a microfluidic assay. The phosphorylation of a FAM labeled peptide substrate was monitored in the Caliper EZ Reader II (Perkin Elmer). The assay condition for each batch of enzyme (Carna Biosciences) was optimized to obtain 10% conversion rate of peptide substrate.
(§3) The test compounds were dissolved in DMSO to a stock concentration of 10 mM. 3-fold serially diluted compounds with top concentration of 5 μM were pre-incubated with JAK1, JAK2, JAK2V617F or TYK2 for 10 min at ambient temperature. The final DMSO concentration of assay mixture was 1%. FAM labeled peptide substrate (final concentration […]) and ATP (1 mM concentration) were sequentially added to initiate the kinase reaction at 28° C. The reaction was stopped by adding 50 mMEDTA. The reaction time for JAK1, JAK2, JAK2V617F and TYK2 was 120 min, 20 min, 30 min and 10 min, respectively.
(§4) The well in the test plate without enzyme was defined as 100% inhibition. And the well without compound but with equivalent DMSO was defined as no inhibition. The percent inhibition was calculated by the following formula. % Inhibition=(Conversionmax−Conversionsample)/(Conversionmax−Conversionmin)*100Conversionmax means the conversion rate in the positive well without addition of compound Conversionmin means the conversion rate in the well without addition of enzyme Conversionsample means the conversion rate of test compounds
(§5) The dose-response (percent inhibition) curve was plotted and IC50 values were determined by GraphPad software.

JAK2V617F = biological target: T2, JAK2V617F (Homo sapiens, UniProt O60674, V617F); experiment: JAK2V617F microfluidic kinase assay (Caliper EZ Reader II, FAM labeled peptide substrate); conditions: (2.5 nM), 1 mM ATP
T2 construct: purchased Carna Biosciences
T2 sequence (O60674 whole entry V617F): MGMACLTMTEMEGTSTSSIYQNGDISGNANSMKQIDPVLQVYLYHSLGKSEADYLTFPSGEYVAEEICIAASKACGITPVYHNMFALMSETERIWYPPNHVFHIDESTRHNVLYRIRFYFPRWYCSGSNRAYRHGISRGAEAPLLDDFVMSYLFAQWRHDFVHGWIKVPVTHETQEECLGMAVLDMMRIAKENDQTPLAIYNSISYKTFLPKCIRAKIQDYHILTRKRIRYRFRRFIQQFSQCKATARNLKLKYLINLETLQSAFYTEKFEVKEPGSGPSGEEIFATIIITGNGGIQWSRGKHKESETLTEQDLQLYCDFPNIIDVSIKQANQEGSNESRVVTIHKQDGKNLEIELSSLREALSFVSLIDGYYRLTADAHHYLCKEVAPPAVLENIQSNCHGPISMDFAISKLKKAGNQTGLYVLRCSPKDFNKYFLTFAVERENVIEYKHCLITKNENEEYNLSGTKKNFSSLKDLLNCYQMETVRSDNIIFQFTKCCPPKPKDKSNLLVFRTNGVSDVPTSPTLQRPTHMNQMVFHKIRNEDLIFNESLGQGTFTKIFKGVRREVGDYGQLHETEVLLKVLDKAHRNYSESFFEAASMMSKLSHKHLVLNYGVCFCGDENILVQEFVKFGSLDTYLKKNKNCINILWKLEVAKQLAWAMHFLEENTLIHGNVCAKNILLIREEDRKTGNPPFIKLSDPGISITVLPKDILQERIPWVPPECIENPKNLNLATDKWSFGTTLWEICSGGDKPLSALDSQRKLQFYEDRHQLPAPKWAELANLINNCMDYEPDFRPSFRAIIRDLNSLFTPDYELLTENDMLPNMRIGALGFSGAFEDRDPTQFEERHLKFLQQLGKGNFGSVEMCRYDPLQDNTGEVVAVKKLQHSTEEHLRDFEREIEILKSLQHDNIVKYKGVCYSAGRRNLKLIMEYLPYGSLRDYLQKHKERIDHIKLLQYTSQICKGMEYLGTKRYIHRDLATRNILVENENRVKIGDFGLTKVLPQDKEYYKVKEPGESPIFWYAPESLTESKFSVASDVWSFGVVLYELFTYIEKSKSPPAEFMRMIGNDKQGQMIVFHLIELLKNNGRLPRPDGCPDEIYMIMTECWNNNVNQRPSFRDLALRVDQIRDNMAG
Procedure: as §1, §2, §3, §4, §5

TYK2 = biological target: T3, TYK2 (Homo sapiens, UniProt P29597); experiment: TYK2 microfluidic kinase assay (Caliper EZ Reader II, FAM labeled peptide substrate); conditions: (2.5 nM), 1 mM ATP; Table 2; read-out: IC50 TYK2 (2.5 nM) (1 mM ATP)
T3 construct: purchased Carna Biosciences
T3 sequence (P29597 whole entry): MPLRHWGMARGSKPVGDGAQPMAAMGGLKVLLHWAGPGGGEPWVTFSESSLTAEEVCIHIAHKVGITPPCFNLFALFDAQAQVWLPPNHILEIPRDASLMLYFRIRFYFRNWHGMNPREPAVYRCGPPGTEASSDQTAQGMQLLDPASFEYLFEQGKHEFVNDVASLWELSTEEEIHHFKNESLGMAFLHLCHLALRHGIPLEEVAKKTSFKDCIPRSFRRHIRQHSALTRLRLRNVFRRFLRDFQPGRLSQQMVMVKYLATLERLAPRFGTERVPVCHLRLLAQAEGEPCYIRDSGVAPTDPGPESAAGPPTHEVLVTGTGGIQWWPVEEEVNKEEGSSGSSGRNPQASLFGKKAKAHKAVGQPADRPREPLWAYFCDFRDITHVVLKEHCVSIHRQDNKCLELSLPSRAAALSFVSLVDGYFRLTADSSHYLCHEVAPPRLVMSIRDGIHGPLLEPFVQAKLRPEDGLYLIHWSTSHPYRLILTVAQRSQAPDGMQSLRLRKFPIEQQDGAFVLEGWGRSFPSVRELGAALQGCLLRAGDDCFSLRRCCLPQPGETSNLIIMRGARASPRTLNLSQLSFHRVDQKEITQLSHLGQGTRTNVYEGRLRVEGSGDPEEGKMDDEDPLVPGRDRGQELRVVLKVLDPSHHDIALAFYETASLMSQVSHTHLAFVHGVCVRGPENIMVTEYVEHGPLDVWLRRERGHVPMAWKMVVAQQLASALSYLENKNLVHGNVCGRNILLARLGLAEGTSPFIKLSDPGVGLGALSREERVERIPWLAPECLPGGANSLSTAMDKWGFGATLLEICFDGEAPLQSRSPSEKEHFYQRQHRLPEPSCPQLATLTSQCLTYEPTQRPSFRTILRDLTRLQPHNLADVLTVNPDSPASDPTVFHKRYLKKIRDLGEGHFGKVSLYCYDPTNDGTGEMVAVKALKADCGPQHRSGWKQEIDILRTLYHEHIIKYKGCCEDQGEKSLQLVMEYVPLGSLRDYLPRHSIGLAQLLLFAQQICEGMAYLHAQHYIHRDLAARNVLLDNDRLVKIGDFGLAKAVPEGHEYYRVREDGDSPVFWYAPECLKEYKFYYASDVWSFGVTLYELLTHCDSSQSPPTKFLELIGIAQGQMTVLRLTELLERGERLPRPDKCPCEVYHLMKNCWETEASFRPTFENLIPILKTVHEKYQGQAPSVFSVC
Procedure: as §1, §2, §3, §4, §5

JAK2 = biological target: T4, JAK2 (Homo sapiens, UniProt O60674); experiment: JAK2 microfluidic kinase assay (Caliper EZ Reader II, FAM labeled peptide substrate); conditions: (0.25 nM), 1 mM ATP
T4 construct: purchased Carna Biosciences
T4 sequence (O60674 whole entry): as the sequence (O60674 whole entry V617F) above, with F617V counted along it
Procedure: as §1, §2, §3, §4, §5

[1] = Table 2, read-out: IC50 JAK1 (5 nM) (1 mM ATP)
[2] = Table 2, read-out: IC50 J2V617F (2.5 nM) (1 mM ATP)
[3] = Table 3B, literature compounds, read-out: JAK1 (5 nM) (1 mM ATP)
[4] = Table 3B, literature compounds, read-out: J2V617F (2.5 nM) (1 mM ATP)
[5] = Table 3B, literature compounds, read-out: JAK2 (0.25 nM) (1 mM ATP)
[6] = Table 2, read-out: IC50 JAK2 (0.25 nM) (1 mM ATP)

SMILES	IC50 (JAK1; [1]) [nM]	IC50 (JAK2V617F; [2]) [nM]	other results
N#CC1(COc2ccc(-c3nc(Nc4cnn(C5CCOCC5)c4)ncc3Cl)cc2F)CC1 [Example 23, 1-((4-(5-chloro-2-((1-(tetrahydro-2H-pyran-4-yl)-1H-pyrazol-4-yl)amino)pyrimidin-4-yl)-2-fluorophenoxy)methyl)cyclopropane-carbonitrile]	13.6	< 1.25	
Cc1cnc(Nc2cnn(C3CCOCC3)c2)nc1-c1ccc(OCC(C)(C)C#N)cc1 [Example 15, 2,2-dimethyl-3-(4-(5-methyl-2-((1-(tetrahydro-2H-pyran-4-yl)-1H-pyrazol-4-yl)amino)pyrimidin-4-yl)phenoxy)propanenitrile]	5.71	< 1.25	
Cc1cnc(Nc2cnn(C3CC3)c2)nc1-c1ccc(OCC2(C#N)CC2)c(F)c1 [Example 5, 1-((4-(2-((1-cyclopropyl-1H-pyrazol-4-yl)amino)-5-methylpyrimidin-4-yl)-2-fluorophenoxy)methyl)cyclopropane-carbonitrile]	3.32	< 1.25	IC50 (TYK2): 3.26 nM
CCCOc1ccc(-c2nc(Nc3cnn(C)c3)ncc2C)cc1F [Example 48, 4-(3-fluoro-4-propoxyphenyl)-5-methyl-N-(1-methyl-1H-pyrazol-4-yl)pyrimidin-2-amine, reference compound]			IC50 (JAK1; [3]): 25.7 nM; IC50 (JAK2V617F; [4]): 60 nM; IC50 (JAK2; [5]): 39.6 nM
Cc1cnc(Nc2cnn(C3CCN(C(=O)C4(C)CC4)CC3)c2)nc1-c1ccc(OCC2(C#N)CC2)c(F)c1 [Example 9, 1-((2-fluoro-4-(5-methyl-2-((1-(1-(1-methylcyclopropanecarbonyl)piperidin-4-yl)-1H-pyrazol-4-yl)amino)pyrimidin-4-yl)phenoxy)methyl)cyclopropane-carbonitrile]	7.06	< 1.25	
Cc1cnc(Nc2cnn(C)c2)nc1-c1ccc(OC(C)C)c(F)c1 [Example 47, 4-(3-fluoro-4-isopropoxyphenyl)-5-methyl-N-(1-methyl-1H-pyrazol-4-yl)pyrimidin-2-amine, reference compound]			IC50 (JAK1; [3]): 48.6 nM; IC50 (JAK2V617F; [4]): 84.2 nM; IC50 (JAK2; [5]): 61.3 nM
N#CC1(COc2ccc(-c3nc(Nc4cnn(C5CCOCC5)c4)ncc3F)cc2F)CC1 [Example 22, 1-((2-fluoro-4-(5-fluoro-2-((1-(tetrahydro-2H-pyran-4-yl)-1H-pyrazol-4-yl)amino)pyrimidin-4-yl)phenoxy)methyl)cyclopropane-carbonitrile]	136	56.8	
Cc1cnc(Nc2cnn(C3CCN(C(=O)C4CC4)CC3)c2)nc1-c1ccc(OCC2(C#N)CC2)c(F)c1 [Example 8, 1-((4-(2-((1-(1-(cyclopropanecarbonyl)piperidin-4-yl)-1H-pyrazol-4-yl)amino)-5-methylpyrimidin-4-yl)-2-fluorophenoxy)methyl)cyclopropane-carbonitrile]	6.2	< 1.25	
Cc1cnc(Nc2cnn(C3CC3)c2)nc1-c1ccc(OCC2(C#N)CCC2)cc1 [Example 3, 1-((4-(2-((1-cyclopropyl-1H-pyrazol-4-yl)amino)-5-methylpyrimidin-4-yl)phenoxy)methyl)cyclobutane-carbonitrile]	8.86	28.1	IC50 (TYK2): 21.9 nM
Cc1cnc(Nc2cnn(C3CC3)c2)nc1-c1cc(F)c(OCC2(C#N)CC2)c(F)c1 [Example 10, 1-((4-(2-((1-cyclopropyl-1H-pyrazol-4-yl)amino)-5-methylpyrimidin-4-yl)-2,6-difluorophenoxy)methyl)cyclopropane carbonitrile]	124	113	
CC(C)(C#N)COc1ccc(-c2nc(Nc3cnn(C4CCOCC4)c3)ncc2F)cc1F [Example 25, 3-(2-fluoro-4-(5-fluoro-2-((1-(tetrahydro-2H-pyran-4-yl)-1H-pyrazol-4-yl)amino)pyrimidin-4-yl)phenoxy)-2,2-dimethylpropanenitrile]	32	32	
CC(=O)N1CCC(n2cc(Nc3ncc(C)c(-c4ccc(OCC(C)(C)C#N)c(F)c4)n3)cn2)CC1 [Example 28, 3-(4-(2-((1-(1-acetylpiperidin-4-yl)-1H-pyrazol-4-yl)amino)-5-methylpyrimidin-4-yl)-2-fluorophenoxy)-2,2-dimethylpropanenitrile]	< 2.5	< 1.25	
Cc1cnc(Nc2cnn(CC#N)c2)nc1-c1ccc(OCC(C)(C)C#N)c(F)c1 [Example 30, 3-(4-(2-((1-(cyanomethyl)-1H-pyrazol-4-yl)amino)-5-methylpyrimidin-4-yl)-2-fluorophenoxy)-2,2-dimethylpropanenitrile]	< 2.5		IC50 (JAK2; [6]): 0.3 nM
Cc1cnc(Nc2cnn(C3CC3)c2)nc1-c1ccc2c(c1)CC(C#N)CO2 (centres unmarked) [Example 34, 6-(2-((1-cyclopropyl-1H-pyrazol-4-yl)amino)-5-methylpyrimidin-4-yl)chroman-3-carbonitrile]	136		IC50 (JAK2; [6]): 58.8 nM
Cc1cnc(Nc2cnn(C3CC3)c2)nc1-c1ccc(N(C)CC(C)(C)C#N)c(F)c1 [Example 35, 3-((4-(2-((1-cyclopropyl-1H-pyrazol-4-yl)amino)-5-methylpyrimidin-4-yl)-2-fluorophenyl)(methyl)amino)-2,2-dimethylpropanenitrile]	72.1		IC50 (JAK2; [6]): 1.66 nM
Cc1cnc(Nc2cnn(C3CCOCC3)c2)nc1-c1ccc(OC(C)C(C)(C)C#N)cc1 (centres unmarked) [Example 16, 2,2-dimethyl-3-(4-(5-methyl-2-((1-(tetrahydro-2H-pyran-4-yl)-1H-pyrazol-4-yl)amino)pyrimidin-4-yl)phenoxy)butanenitrile]	39.2	6.33	
N#CC1(COc2ccc(-c3nc(Nc4cnn(C5CC5)c4)ncc3Cl)cc2F)CC1 [Example 27, 1-((4-(5-chloro-2-((l-cyclopropyl-1H-pyrazol-4-yl)amino)pyrimidin-4-yl)-2-fluorophenoxy)methyl)cyclopropane carbonitrile]	5.53	1.49	
CN(CC(C)(C)C#N)c1ccc(-c2nc(Nc3cnn(C4CC4)c3)ncc2Cl)cc1F [Example 36, 3-((4-(5-chloro-2-((1-cyclopropyl-1H-pyrazol-4-yl)amino)pyrimidin-4-yl)-2-fluorophenyl)(methyl)amino)-2,2-dimethylpropanenitrile]	103		IC50 (JAK2; [6]): 4.6 nM
Cc1cnc(Nc2cnn(CC#N)c2)nc1-c1ccc(OCC2(C#N)CC2)c(F)c1 [Example 31, 1-((4-(2-((1-(cyanomethyl)-1H-pyrazol-4-yl)amino)-5-methylpyrimidin-4-yl)-2-fluorophenoxy)methyl)cyclopropane-carbonitrile]	7.94		IC50 (JAK2; [6]): 3.2 nM
Cc1cnc(Nc2cnn(C3CC3)c2)nc1-c1ccc(OC2CC(C#N)C2)cc1 (centres unmarked) [Example 2, 3-(4-(2-((1-cyclopropyl-1H-pyrazol-4-yl)amino)-5-methylpyrimidin-4-yl)phenoxy)cyclobutanecarbonitrile]	72.7	171	
CC(C)(C#N)COc1ccc(-c2nc(Nc3cnn(C4CCOCC4)c3)ncc2Cl)cc1F [Example 26, 3-(4-(5-chloro-2-((1-(tetrahydro-2H-pyran-4-yl)-1H-pyrazol-4-yl)amino)pyrimidin-4-yl)-2-fluorophenoxy)-2,2-dimethylpropanenitrile]	6.17	< 1.25	
CC(=O)N1CCC(n2cc(Nc3ncc(C)c(-c4ccc(OCC5(C#N)CC5)c(F)c4)n3)cn2)CC1 [Example 13, 1-((4-(2-((1-(1-acetylpiperidin-4-yl)-1H-pyrazol-4-yl)amino)-5-methylpyrimidin-4-yl)-2-fluorophenoxy)methyl)cyclopropane-carbonitrile]	5.58	< 1.25	
COc1ccc(-c2nc(Nc3cnn(C)c3)ncc2C)cc1F [Example 45, 4-(3-fluoro-4-methoxyphenyl)-5-methyl-N-(1-methyl-1H-pyrazol-4-yl)pyrimidin-2-amine, reference compound]			IC50 (JAK1; [3]): 110 nM; IC50 (JAK2V617F; [4]): 206 nM; IC50 (JAK2; [5]): 121 nM
N#CC1(COc2ccc(-c3nc(Nc4cnn(C5CC5)c4)ncc3F)cc2F)CC1 [Example 24, 1-((4-(2-((1-cyclopropyl-1H-pyrazol-4-yl)amino)-5-fluoropyrimidin-4-yl)-2-fluorophenoxy)methyl)cyclopropane-carbonitrile]	84.2	111	
